# Laboratory results reported in patent publication US20020162794A1, “Anaerobic digestion” (priority 2001, published 2002).
# Values joined by “and” are separate entries in the source; they are usually repeats but may differ in a detail not shown here. Equal values may be shown once.
# What was measured:
# cattle = settings: added to organic roughage fed to cattle; cited from earlier work
# [1] = system: mixed culture from municipal sludge digester; assay: Total Solids (TS) of batch anaerobic digester reactors
# Method: A 30 ml samples is withdrawn from each of the 12 reactors into refractory pans after the weight of empty pans was recorded (say W1). […] The weight of pans with dried sample is then noted (say W2). The difference W2˜W1, gives the weight of solids in 30 ml sample. From this the total Solids concentration in units of g/liter is calculated. This TS parameter is indicative of concentration of total solids in the sample including organic substrate, inert organics and inorganics.
# (§1) Municipal sludge from the city of Lubbock, Wastewater Treatment Plant was digested in 12 batch digesters. Using twelve batch reactors allowed the collection of control reactors data (i.e., no formate in the reactors) in triplicate, titration studies of increasing formate concentration, and duplicates/triplicates of varying formate concentration. Experiments were conducted in the laboratories of Texas Tech University.
# (§2) The reactors were setup on Mar. […] The substrate taken was 2 parts of 50 g/liter sucrose solution mixed with 1 part of digested municipal sludge which acts as the seed material for incorporation of microbes into the reactors. The experiments were started with the following protocol. [drawing 1]
# [2] = system: mixed culture from a publicly owned anaerobic digester; assay: Identification of predominant colony types in the mixed culture; type: cell-based
# [3] = system: mixed culture from municipal sludge digester; assay: Total Volatile Solids (TVS) of batch anaerobic digester reactors
# Method: After the above TS measurements were completed, the pans together with dried samples are put into furnace at 550° C. for about two hours. The weight of the pans are then noted (say W3). The difference […] then gives the weight of volatile solids in the 30 ml sample. Again this Total Volatile Solids concentration is manipulated to units of g/liter. TVS determination represents the concentration of the organic substrate in the test sample.
# as §1, §2
# [4] = system: mixed culture from municipal sludge digester; assay: Volume and composition of gas generated in batch anaerobic digesters
# Text: Volumetric gas production measurements
# The gases generated by the biological activity within the reactors were collected in the overhanging plastic bags. The bags are connected to a tank containing colored water via a gas port used for sampling purpose to determine the gas composition. To measure the volume of gas in the bag, the water in the tank is drained out maintaining a suction pressure head difference of 2 cm between the atmospheric air and the gas inside the tank. The water is drained until there is a jump in the pressure head differences, which is actually noted by observing a jump in the difference in levels of manometer limbs. […] The difference between final water level and initial water level is measured by the scale on the side of the tank and is indicative of the volume of gas collected in each of the bags. The gas is returned to the bags by pumping the drained water back into the water tank, whereby the collected gas inside the water tank is pushed back into the overhanging plastic bags.
# Gas composition measurements
# To analyze the composition of the gases collected, a small sample of gas was withdrawn through a gas port and then sent out for analysis by a commercial laboratory utilizing gas chromatography.
# as §1, §2
# [5] = 100000 ppm, average of reactors
smiles,measurement,setting,value
O=C[O-].[Na+] [sodium formate],increase of digestibility of the feed,cattle,4-27%
same,Total Solids,"[1]; 1000 ppm, day 2",37.6 g/L and 35.9 g/L
same,Total Solids,"[1]; 1000 ppm, day 7",33.8 g/L and 32.5 g/L and 32.2 g/L
same,Total Solids,"[1]; 1000 ppm, day 16",20.3 g/L and 15.8 g/L and 21.4 g/L
same,Total Solids,"[1]; 1000 ppm, day 55",15.6 g/L and 13.2 g/L and 17.3 g/L
same,Total Solids,"[1]; 1000 ppm, day 243 (so in the source)",16.6 g/L and 13.0 g/L and 17.8 g/L
same,Total Solids,"[1]; 1000 ppm, formate addition at t = 0",42.3 g/L and 41.8 g/L and 40.8 g/L
same,Total Solids,"[1]; 5000 ppm, day 2",35.5 g/L
same,Total Solids,"[1]; 5000 ppm, day 7",34.6 g/L
same,Total Solids,"[1]; 5000 ppm, day 16",20.7 g/L
same,Total Solids,"[1]; 5000 ppm, day 55",23.2 g/L
same,Total Solids,"[1]; 5000 ppm, day 243 (so in the source)",22.0 g/L
same,Total Solids,"[1]; 5000 ppm, formate addition at t = 0",47.5 g/L
same,Total Solids,"[1]; 10000 ppm, day 2",44.5 g/L and 52.6 g/L and 48.3 g/L
same,Total Solids,"[1]; 10000 ppm, day 7",36.3 g/L and 45.3 g/L and 43.5 g/L
same,Total Solids,"[1]; 10000 ppm, day 16",34.6 g/L and 41.2 g/L and 31.2 g/L
same,Total Solids,"[1]; 10000 ppm, day 55",36.3 g/L and 36.8 g/L and 33.3 g/L
same,Total Solids,"[1]; 10000 ppm, day 243 (so in the source)",33.4 g/L and 39.6 g/L and 30.7 g/L
same,Total Solids,"[1]; 10000 ppm, formate addition at t = 0",55.1 g/L and 54.9 g/L and 53.4 g/L
same,Total Solids,"[1]; 100000 ppm, day 2",254 g/L and 289.6 g/L
same,Total Solids,"[1]; 100000 ppm, day 7",91.5 g/L and 147.4 g/L
same,Total Solids,"[1]; 100000 ppm, day 16",129 g/L and 151.1 g/L
same,Total Solids,"[1]; 100000 ppm, day 55",128 g/L and 160 g/L
same,Total Solids,"[1]; 100000 ppm, day 243 (so in the source)",125 g/L and 147.8 g/L
same,Total Solids,"[1]; 100000 ppm, formate addition at t = 0",180.4 g/L and 188 g/L
same,colony types identified,[2]; 10% level,only Cellulomonas cellulans was identified along with large masses of yeast cells
same,bio-diversity of the mixed culture,[2]; 1000-5000 ppm,increase the bio-diversity of the mixed culture
same,number of predominant colony types,"[2]; 1000 ppm, control had two",eight
same,growth of colonies in the mixed culture,[2]; lower levels (≦5000 ppm),facilitate growth of some of the more dormant colonies in the mixed culture
same,Total Volatile Solids,"[3]; 1000 ppm, day 2",33.4 g/L and 32.6 g/L and 26.7 g/L
same,Total Volatile Solids,"[3]; 1000 ppm, day 7",30.6 g/L and 29.9 g/L and 29.3 g/L
same,Total Volatile Solids,"[3]; 1000 ppm, day 16",16.4 g/L and 13.1 g/L and 18.1 g/L
same,Total Volatile Solids,"[3]; 1000 ppm, day 24",14.4 g/L and 10.3 g/L and 15.2 g/L
same,Total Volatile Solids,"[3]; 1000 ppm, day 55",12.9 g/L and 10.7 g/L and 14.2 g/L
same,Total Volatile Solids,"[3]; 1000 ppm, with formate addition at t = 0",39.6 g/L and 38.8 g/L and 37.3 g/L
same,Total Volatile Solids,"[3]; 5000 ppm, day 2",23.7 g/L
same,Total Volatile Solids,"[3]; 5000 ppm, day 7",20.3 g/L
same,Total Volatile Solids,"[3]; 5000 ppm, day 16",12.6 g/L
same,Total Volatile Solids,"[3]; 5000 ppm, day 24",11.7 g/L
same,Total Volatile Solids,"[3]; 5000 ppm, day 55",14.7 g/L
same,Total Volatile Solids,"[3]; 5000 ppm, with formate addition at t = 0",41.8 g/L
same,Total Volatile Solids,"[3]; 10000 ppm, day 2",25.5 g/L and 30.2 g/L and 29.8 g/L
same,Total Volatile Solids,"[3]; 10000 ppm, day 7",19.2 g/L and 24 g/L and 24.1 g/L
same,Total Volatile Solids,"[3]; 10000 ppm, day 16",17.1 g/L and 21.0 g/L and 15.0 g/L
same,Total Volatile Solids,"[3]; 10000 ppm, day 24",16.4 g/L and 18.9 g/L and 15.2 g/L
same,Total Volatile Solids,"[3]; 10000 ppm, day 55",19.8 g/L and 20.1 g/L and 18.5 g/L
same,Total Volatile Solids,"[3]; 10000 ppm, with formate addition at t = 0",38.8 g/L and 46.9 g/L and 46.4 g/L
same,Total Volatile Solids,"[3]; 100000 ppm, day 2",68.5 g/L and 80.8 g/L
same,Total Volatile Solids,"[3]; 100000 ppm, day 7",45.8 g/L and 52.7 g/L
same,Total Volatile Solids,"[3]; 100000 ppm, day 16",44.7 g/L and 54.10 g/L
same,Total Volatile Solids,"[3]; 100000 ppm, day 24",41.4 g/L and 51.6 g/L
same,Total Volatile Solids,"[3]; 100000 ppm, day 55",45.5 g/L and 65.8 g/L
same,Total Volatile Solids,"[3]; 100000 ppm, with formate addition at t = 0",126.6 g/L and 134.9 g/L
same,Average Composition CH4,"[4]; 1000 ppm, average of reactors",0%
same,Average Composition CO2,"[4]; 1000 ppm, average of reactors",18.3%
same,Average Composition N2,"[4]; 1000 ppm, average of reactors",71.7%
same,Composition CH4,"[4]; 1000 ppm, single reactors",0%
same,Composition CO2,"[4]; 1000 ppm, single reactors",40% and 20% and 25%
same,Composition N2,"[4]; 1000 ppm, single reactors",60% and 80% and 75%
same,Average Composition CH4,[4]; 5000 ppm,0.1%
same,Average Composition CO2,[4]; 5000 ppm,41%
same,Average Composition N2,[4]; 5000 ppm,59%
same,Composition CH4,"[4]; 5000 ppm, reactor 3",0.1%
same,Composition CO2,"[4]; 5000 ppm, reactor 3",41%
same,Composition N2,"[4]; 5000 ppm, reactor 3",59%
same,Volume of CO2 generated,"[4]; 5000 ppm, reactor 3",725 mL
same,Volume of gas,"[4]; 5000 ppm, reactor 3",1750 mL
same,Average Composition CH4,"[4]; 10000 ppm, average of reactors",0%
same,Average Composition CO2,"[4]; 10000 ppm, average of reactors",41.7%
same,Average Composition N2,"[4]; 10000 ppm, average of reactors",58.3%
same,Composition CH4,"[4]; 10000 ppm, single reactors",0%
same,Composition CO2,"[4]; 10000 ppm, single reactors",57% and 43% and 40%
same,Composition N2,"[4]; 10000 ppm, single reactors",43% and 57% and 60%
same,Average Composition CH4,[4]; [5],0%
same,Average Composition CO2,[4]; [5],59%
same,Average Composition N2,[4]; [5],41.5%
same,Composition CH4,"[4]; 100000 ppm, single reactors",0%
same,Composition CO2,"[4]; 100000 ppm, single reactors",70% and 47%
same,Composition N2,"[4]; 100000 ppm, single reactors",30% and 53%
same,Volume of CO2 generated,"[4]; 100000 ppm, single reactors",910 mL and 1663 mL
